Experimental findings from patent US8916565B2, “Pyrrolopyrazine-spirocyclic piperidine amides as modulators of ion channels” (priority 2011, dated 2014) are described below.

The target of the test is human NaV subtype, like NaV 1.7 (Homo sapiens, UniProt Q15858). In words: E-VIPR optical membrane potential assay with electrical stimulation. Type of test: cell-based. Particulars: active against one or more sodium channels; Table 3 does not name the assay or NaV subtype; read-out: Binned Activity Data (IC50).

pIC50: −log10 of the molar value. A value given as a limit tells only on which side of the number the result lay.

Chain of human NaV subtype, like NaV 1.7 (Q15858 whole entry): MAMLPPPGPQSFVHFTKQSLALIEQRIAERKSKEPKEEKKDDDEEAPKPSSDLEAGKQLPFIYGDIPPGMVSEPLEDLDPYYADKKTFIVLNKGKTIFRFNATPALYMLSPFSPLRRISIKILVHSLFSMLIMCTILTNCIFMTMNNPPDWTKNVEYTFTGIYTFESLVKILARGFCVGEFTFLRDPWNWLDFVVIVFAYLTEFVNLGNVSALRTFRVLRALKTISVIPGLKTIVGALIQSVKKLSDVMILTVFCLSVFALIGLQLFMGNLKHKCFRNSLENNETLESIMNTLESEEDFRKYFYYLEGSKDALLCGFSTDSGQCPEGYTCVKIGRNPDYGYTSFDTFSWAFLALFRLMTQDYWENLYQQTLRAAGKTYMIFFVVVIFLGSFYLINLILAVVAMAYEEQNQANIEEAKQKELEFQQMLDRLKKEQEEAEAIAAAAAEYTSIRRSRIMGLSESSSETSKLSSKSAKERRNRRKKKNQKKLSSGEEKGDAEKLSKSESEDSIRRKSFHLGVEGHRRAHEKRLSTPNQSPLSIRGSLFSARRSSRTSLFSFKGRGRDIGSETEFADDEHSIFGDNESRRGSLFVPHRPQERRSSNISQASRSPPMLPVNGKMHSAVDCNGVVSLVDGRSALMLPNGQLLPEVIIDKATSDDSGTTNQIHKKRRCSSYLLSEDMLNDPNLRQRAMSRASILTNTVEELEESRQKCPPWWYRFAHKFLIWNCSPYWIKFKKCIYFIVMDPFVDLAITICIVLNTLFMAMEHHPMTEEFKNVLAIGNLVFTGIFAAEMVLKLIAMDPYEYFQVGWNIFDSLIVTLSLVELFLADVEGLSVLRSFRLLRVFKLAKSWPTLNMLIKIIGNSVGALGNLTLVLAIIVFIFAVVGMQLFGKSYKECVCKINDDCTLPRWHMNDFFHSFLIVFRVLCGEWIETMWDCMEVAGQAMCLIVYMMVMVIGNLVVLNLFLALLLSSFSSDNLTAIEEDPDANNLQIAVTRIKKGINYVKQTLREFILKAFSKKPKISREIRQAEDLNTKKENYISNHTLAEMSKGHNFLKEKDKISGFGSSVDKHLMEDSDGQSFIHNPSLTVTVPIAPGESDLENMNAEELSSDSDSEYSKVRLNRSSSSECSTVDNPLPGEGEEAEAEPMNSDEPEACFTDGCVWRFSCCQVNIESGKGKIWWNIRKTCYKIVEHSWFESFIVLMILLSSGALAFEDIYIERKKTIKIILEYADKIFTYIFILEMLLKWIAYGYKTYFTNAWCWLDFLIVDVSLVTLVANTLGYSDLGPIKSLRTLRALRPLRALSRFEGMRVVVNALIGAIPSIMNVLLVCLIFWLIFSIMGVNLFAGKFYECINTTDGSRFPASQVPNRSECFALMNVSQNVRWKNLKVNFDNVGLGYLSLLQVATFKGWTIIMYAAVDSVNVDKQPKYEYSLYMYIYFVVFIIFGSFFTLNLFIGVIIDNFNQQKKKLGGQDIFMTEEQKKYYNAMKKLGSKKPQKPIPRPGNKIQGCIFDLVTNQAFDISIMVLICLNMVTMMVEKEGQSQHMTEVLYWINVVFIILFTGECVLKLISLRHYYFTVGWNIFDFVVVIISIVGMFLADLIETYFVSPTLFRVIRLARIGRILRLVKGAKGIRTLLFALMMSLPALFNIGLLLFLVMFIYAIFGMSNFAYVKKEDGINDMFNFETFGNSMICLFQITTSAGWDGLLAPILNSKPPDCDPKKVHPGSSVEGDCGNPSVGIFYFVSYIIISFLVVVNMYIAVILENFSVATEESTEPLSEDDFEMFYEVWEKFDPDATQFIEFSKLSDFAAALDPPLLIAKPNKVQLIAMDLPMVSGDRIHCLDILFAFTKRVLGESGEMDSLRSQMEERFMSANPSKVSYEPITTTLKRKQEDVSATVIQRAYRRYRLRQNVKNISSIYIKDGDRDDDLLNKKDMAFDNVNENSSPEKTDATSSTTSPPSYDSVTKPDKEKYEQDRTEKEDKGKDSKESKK

With `COc1ccc(C(=O)N2CCC3(CC2)c2ccc(C(=O)C4CC4)n2CCN3C)cc1Cl` [Compound 484], the pIC50 was no less than 5.70.

Take `COc1ccc(C(=O)N2CCC3(CC2)c2ccc(C(=O)C(F)(F)F)n2C[C@H](C)N3C)nc1C` [Compound 485]: the pIC50 is no less than 5.70.

Consider `CC(C)CS(=O)(=O)c1ccc(C(=O)N2CCC3(CC2)c2ccc(C(F)(F)F)n2CCN3C)cc1` [Compound 486], for which the pIC50 was no less than 5.70.

Take `Cc1cc(C(=O)N2CCC3(CC2)c2ccc(C(=O)C(F)(F)F)n2CCN3C)ccc1C1(O)CCCC1` [Compound 487]: the pIC50 was no less than 5.70.

Regarding `CC(C)Oc1ccc(C(=O)N2CCC3(CC2)c2ccc(C(F)(F)F)n2CCN3C)cc1` [Compound 488], the pIC50 was no less than 5.70.

Turning to `CCn1cnc(-c2ccc(C(=O)N3CCC4(CC3)c3ccc(C(=O)C(F)(F)F)n3CCN4C)cc2C)c1` [Compound 489], the pIC50 is no less than 5.70.

Consider `COc1ccc(C(=O)N2CCC3(CC2)NC(C)(C)Cn2c(C(=O)C(F)(F)F)ccc23)nc1C` [Compound 490], for which the pIC50 is no less than 5.70.

With `CC1(C)Cn2c(C(=O)C(F)(F)F)ccc2C2(CCN(C(=O)c3ccc(O)c(Cl)c3)CC2)N1` [Compound 491], the pIC50 is no less than 5.70.

As to `Cc1cc(C(=O)N2CCC3(CC2)c2ccc(C(F)(F)F)n2CCN3C2CC2)ccc1S(=O)(=O)C(C)C` [Compound 492], the pIC50 was no less than 5.70.

In the case of `COc1ccc(C(=O)N2CCC3(CC2)c2ccc(C(=O)C4(C)CC4)n2CCN3C)cc1Cl` [Compound 493], the pIC50 is no less than 5.70.

For `CN1CCn2c(C(=O)C(F)(F)F)ccc2C12CCN(C(=O)c1ccc(OCC(C)(C)C)cc1)CC2` [Compound 494], the pIC50 was no less than 5.70.

On to `Cc1cc(C(=O)N2CCC3(CC2)N[C@@H](C)Cn2c(C(F)(F)F)ccc23)ccc1OC(C)C` [Compound 495], for which the pIC50 is no less than 5.70.

With `CN1CCn2c(C(=O)C(F)(F)F)ccc2C12CCN(C(=O)c1ccc(S(=O)(=O)C3CC3)cc1)CC2` [Compound 496], the pIC50 is 5.30 to 5.70.

Take `COc1ccc(C(=O)N2CCC3(CC2)NCCn2c(C(F)(F)F)ccc23)cc1` [Compound 497]: the pIC50 is less than 5.30.

As to `Cc1cc(S(=O)(=O)C(C)C)ccc1C(=O)N1CCC2(CC1)c1ccc(C(F)(F)F)n1CCN2C` [Compound 498], the pIC50 was no less than 5.70.

As for `CN1CCn2c(C(F)(F)F)ccc2C12CCN(C(=O)c1ccc(CC(C)(C)O)cc1)CC2` [Compound 499], the pIC50 was no less than 5.70.

Turning to `CC(C)S(=O)(=O)c1ccc(C(=O)N2CCC3(CC2)c2ccc(C(=O)C(F)(F)F)n2C[C@H](C)N3C)cc1` [Compound 500], the pIC50 was no less than 5.70.

Regarding `CC(C)COc1ccc(C(=O)N2CCC3(CC2)c2ccc(C(=O)C(F)(F)F)n2CCN3C)cc1` [Compound 501], the pIC50 was no less than 5.70.

For the compound `CN1CCn2c(C(=O)C(F)(F)F)ccc2C12CCN(C(=O)c1ccc(S(=O)(=O)C(C)(C)C)cc1)CC2` [Compound 502], the pIC50 was less than 5.30.

In the case of `COc1ccc(C(=O)N2CCC3(CC2)NCC(C)n2c(C(=O)C(F)(F)F)ccc23)nc1C` (stereo not shown) [Compound 503], the pIC50 is no less than 5.70.

In the case of `CC(=O)c1ccc2n1CCN(C)C21CCN(C(=O)c2ccc(N3CCCCC3)cc2)CC1` [Compound 504], the pIC50 is less than 5.30.

Take `CC1CNC2(CCN(C(=O)c3ccc(COCCC(F)(F)F)cc3)CC2)c2ccc(C(=O)C(F)(F)F)n21` (stereo not shown) [Compound 505]: the pIC50 was no less than 5.70.

For the compound `COc1cc(C(=O)N2CCC3(NCCn4c(C(F)(F)F)ccc43)C(C)C2)ccc1OC(C)C` (stereo not shown) [Compound 506], the pIC50 is 5.30 to 5.70.

For `CCCOc1ccc(C(=O)N2CCC3(CC2)c2ccc(C(C)=O)n2CCN3C)cc1` [Compound 507], the pIC50 is less than 5.30.

For `Cc1cc(C(=O)N2CCC3(CC2)c2ccc(C(=O)C(F)(F)F)n2CCN3C)ccc1S(=O)(=O)C(C)C` [Compound 508], the pIC50 was no less than 5.70.

In the case of `CC1(C)Cn2c(C(=O)C(F)(F)F)ccc2C2(CCN(C(=O)c3ccc(OCC4CC4)c(F)c3)CC2)N1` [Compound 509], the pIC50 was no less than 5.70.

Regarding `CCOc1ccc(C(=O)N2CCC3(CC2)c2ccc(C(=O)C(F)(F)F)n2CCN3C)cc1OCC` [Compound 510], the pIC50 is no less than 5.70.

For the compound `CCC(CC)(CC)c1ccc(C(=O)N2CCC3(CC2)c2ccc(C(C)=O)n2CCN3C)cc1` [Compound 511], the pIC50 was less than 5.30.

Turning to `CCc1ccc(C(=O)N2CCC3(CC2)c2ccc(Cl)n2CCN3C)cc1OC` [Compound 512], the pIC50 was 5.30 to 5.70.

As for `CC[C@@H](C)Oc1ccc(C(=O)N2CCC3(CC2)c2c(F)cc(C(F)(F)F)n2CCN3C)cc1OC` [Compound 513], the pIC50 was no less than 5.70.

For the compound `COc1ncccc1-c1ccc(C(=O)N2CCC3(CC2)c2ccc(C(=O)C(F)(F)F)n2CCN3C)cc1C` [Compound 514], the pIC50 was less than 5.30.

Turning to `Cc1cc(C(=O)N2CCC3(CC2)c2ccc(C(F)(F)F)n2CCN3C)ccc1S(C)(=O)=O` [Compound 515], the pIC50 is less than 5.30.

Regarding `COc1cc(C(=O)N2CCC3(CC2)c2ccc(C(=O)C(F)(F)F)n2CCN3C)ccc1OCC(C)C` [Compound 516], the pIC50 was no less than 5.70.

As for `CN1CCn2c(C(=O)C(F)(F)F)ccc2C12CCN(C(=O)c1ccc(OS(=O)(=O)C(F)(F)F)cc1)CC2` [Compound 517], the pIC50 is no less than 5.70.

On to `CN1CCn2c(C(F)(F)F)ccc2C12CCN(C(=O)c1cccnc1N1CCC(F)C1)CC2` (stereo not shown) [Compound 518], for which the negative-log IC50 (pIC50) is no less than 5.70.

In the case of `CC(=O)c1ccc2n1CCN(C)C21CCN(C(=O)c2ccc(C(C)C)cc2)CC1` [Compound 519], the pIC50 was less than 5.30.

Consider `CC(=O)c1ccc2n1CCN(C)C21CCN(C(=O)c2ccc(OCC(F)(F)F)cc2)CC1` [Compound 520], for which the pIC50 was no less than 5.70.

Turning to `COc1ccc(C(=O)N2CCC3(CC2)c2ccc(C(=O)C4CC4)n2CCN3C)cc1C` [Compound 521], the pIC50 was no less than 5.70.

As to `CC[C@H](C)Oc1ccc(C(=O)N2CCC3(CC2)NCCn2c(C(F)(F)F)ccc23)cc1OC` [Compound 522], the pIC50 is no less than 5.70.

Take `Cc1cc(C(=O)N2CCC3(CC2)c2ccc(C(=O)C(C)(C)C)n2CCN3C)ccc1C(C)(C)O` [Compound 523]: the pIC50 was no less than 5.70.

Turning to `Cc1cc(C(=O)N2CCC3(CC2)NCC(C)n2c(C(=O)C(F)(F)F)ccc23)ccc1OC(C)C` (stereo not shown) [Compound 524], the pIC50 was no less than 5.70.

Take `CC[C@H](C)Oc1ccc(C(=O)N2CCC3(CC2)c2ccc(C(F)(F)F)n2CCN3C)cc1OC` [Compound 525]: the negative logarithm of the IC50 (pIC50) is no less than 5.70.

`Cc1cc(C(=O)N2CCC3(CC2)c2c(C#N)cc(C(F)(F)F)n2CCN3C)ccc1OC(C)C` [Compound 526]: the pIC50 is no less than 5.70.

As to `O=C(c1ccnc2ccccc12)N1CCC2(CC1)NCCn1c(C(F)(F)F)ccc12` [Compound 527], the pIC50 is less than 5.30.

Take `CC(C)Oc1ccc(C(=O)N2CCC3(CC2)c2ccc(C(=O)C(F)(F)F)n2CCN3C)cc1Cl` [Compound 528]: the pIC50 was no less than 5.70.

On to `COc1ccc(C(=O)N2CCC3(CC2)c2cc(C(=O)C(F)(F)F)cn2C(C)(C)CN3C)cc1Cl` [Compound 529], for which the pIC50 is less than 5.30.

For the compound `CC(C)CCOc1ccc(C(=O)N2CCC3(CC2)c2ccc(Cl)n2CCN3C)cc1` [Compound 530], the pIC50 is no less than 5.70.

Consider `Cc1cc(C(=O)N2CCC3(CC2)c2ccc(Cl)n2CCN3C)ccc1OCC(C)(C)O` [Compound 531], for which the pIC50 was no less than 5.70.

Take `CC(=O)c1ccc2n1CCN(C)C21CCN(C(=O)c2ccc(S(=O)(=O)NC3CC3)cc2)CC1` [Compound 532]: the pIC50 is less than 5.30.

As to `CNC(=O)N1CCn2c(C(F)(F)F)ccc2C12CCN(C(=O)c1ccc(OC(C)C)c(C)c1)CC2` [Compound 533], the pIC50 was no less than 5.70.

On to `Cc1cc(C(=O)N2CCC3(CC2)c2ccc(CC(F)(F)F)n2CCN3C)ccc1S(=O)(=O)C(C)C` [Compound 534], for which the pIC50 was less than 5.30.

Turning to `COc1cc(C(=O)N2CCC3(CC2)c2ccc(C(C)=O)n2CCN3C)ccc1OC(C)C` [Compound 535], the pIC50 was less than 5.30.

With `CC(=O)c1ccc2n1C(C)(C)CN(C)C21CCN(C(=O)c2ccc(OC(C)C)c(C(F)(F)F)c2)CC1` [Compound 536], the pIC50 is 5.30 to 5.70.

As to `CCc1ccc(C(=O)N2CCC3(CC2)c2ccc(C(=O)C(F)(F)F)n2CCN3C)cc1OC` [Compound 537], the pIC50 was no less than 5.70.

`CCCOc1ccc(C(=O)N2CCC3(CC2)c2ccc(C(=O)C(F)(F)F)n2CCN3C)cc1OC` [Compound 538]: the pIC50 is no less than 5.70.

On to `CCCCOc1cc(C(=O)N2CCC3(CC2)c2ccc(Cl)n2CCN3C)ccc1OC` [Compound 539], for which the pIC50 was less than 5.30.

Consider `COc1cc(C(=O)N2CCC3(CC2)c2c(F)cc(C(F)(F)F)n2CCN3C)ccc1OCCO` [Compound 540], for which the pIC50 was less than 5.30.

On to `COc1cc(C(=O)N2CCC3(CC2)c2ccc(C(C)=O)n2CCN3C)ccc1OCCOC(F)(F)F` [Compound 541], for which the pIC50 was no less than 5.70.

With `Cc1cc(C(=O)N2CCC3(CC2)c2ccc(S(C)(=O)=O)n2CCN3C)ccc1OC(C)C` [Compound 542], the pIC50 was less than 5.30.

On to `COc1cc(C(=O)N2CCC3(CC2)c2ccc(C(F)(F)F)n2CCN3C)cc(F)c1OC(C)C` [Compound 544], for which the pIC50 is no less than 5.70.

`COc1cc(C(=O)N2CCC3(c4ccc(C(F)(F)F)n4CCN3C)C(C)C2)ccc1OC(C)C` (stereo not shown) [Compound 545]: the pIC50 is 5.30 to 5.70.

Regarding `CC(C)Oc1ccc(C(=O)N2CCC3(CC2)c2ccc(C(F)(F)F)n2CCN3C)c(F)c1` [Compound 546], the pIC50 is no less than 5.70.

For the compound `COc1cc(C(=O)N2CCC3(CC2)c2ccc(CC(F)(F)F)n2CCN3C)ccc1OC(C)C` [Compound 547], the pIC50 was less than 5.30.

On to `CC(C)Oc1ccc(C(=O)N2CCC3(CC2)c2c(C#N)cc(C(F)(F)F)n2CCN3C)cc1Cl` [Compound 548], for which the pIC50 was no less than 5.70.

As to `CC(C)Oc1ccc(C(=O)N2CCC3(CC2)NCCn2c(C(F)(F)F)ccc23)cc1CO` [Compound 549], the negative-log IC50 (pIC50) is no less than 5.70.

Consider `CCCOc1ccc(C(=O)N2CCC3(CC2)NCCn2c(C(F)(F)F)ccc23)cc1OC` [Compound 550], for which the pIC50 was no less than 5.70.

On to `COc1cc(C(=O)N2CCC3(CC2)NC(C)(C)Cn2c(C(F)(F)F)ccc23)ccc1OC(C)C` [Compound 551], for which the pIC50 was no less than 5.70.

In general, pIC50 refers to −log10 of the IC50, conventionally taken in molar units.
